“And” between values parts separate entries of the source, which are not always exact repeats. Identical values can stand only once. Toxic doses and inconclusive results are not listed.
System: BDF1 mice, P388 leukemia ip, median survival T/C
Assay: NCI In Vivo Anticancer Drug Screen. Data for tumor model P388 Leukemia (intraperitoneal) in B6D2F1 (BDF1) mice
Conditions: endpoint: median survival time, higher = longer survival
Outline: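 Antitumour effect was judged in vivo: survival in drug-treated mice, normalised to that of vehicle-dosed controls, gives the reported T/C.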

[1] = dose: 6.25 mg/kg/injection, schedule: Q01DX009 (ip), vehicle: Klucel (hydroxypropylcellulose) (HPC)
[2] = dose: 6.25 mg/kg/injection, schedule: Q01DX009 (ip), vehicle: saline
[3] = dose: 12.5 mg/kg/injection, schedule: Q01DX009 (ip), vehicle: Klucel (hydroxypropylcellulose) (HPC)
[4] = dose: 12.5 mg/kg/injection, schedule: Q01DX009 (ip), vehicle: saline
[5] = dose: 25.0 mg/kg/injection, schedule: Q01DX009 (ip), vehicle: Klucel (hydroxypropylcellulose) (HPC)
[6] = dose: 50.0 mg/kg/injection, schedule: Q01DX009 (ip), vehicle: saline with Tween-80
[7] = dose: 100.0 mg/kg/injection, schedule: Q01DX009 (ip), vehicle: saline with Tween-80
[8] = dose: 200.0 mg/kg/injection, schedule: Q01DX009 (ip), vehicle: saline with Tween-80
[9] = dose: 400.0 mg/kg/injection, schedule: Q01DX009 (ip), vehicle: saline with Tween-80
[10] = dose: 50.0 mg/kg/injection, schedule: Q01DX009 (ip), vehicle: Klucel (hydroxypropylcellulose) (HPC)
[11] = dose: 100.0 mg/kg/injection, schedule: Q01DX009 (ip), vehicle: Klucel (hydroxypropylcellulose) (HPC)
[12] = dose: 25.0 mg/kg/injection, schedule: Q01DX009 (ip), vehicle: saline
[13] = dose: 50.0 mg/kg/injection, schedule: Q01DX009 (ip), vehicle: saline
[14] = dose: 100.0 mg/kg/injection, schedule: Q04DX003 (ip), vehicle: saline
[15] = dose: 100.0 mg/kg/injection, schedule: Q04DX003 (ip), vehicle: Klucel (hydroxypropylcellulose) (HPC)
[16] = dose: 200.0 mg/kg/injection, schedule: Q01DX009 (ip), vehicle: Klucel (hydroxypropylcellulose) (HPC)
[17] = dose: 200.0 mg/kg/injection, schedule: Q04DX003 (ip), vehicle: Klucel (hydroxypropylcellulose) (HPC)
[18] = dose: 400.0 mg/kg/injection, schedule: Q04DX003 (ip), vehicle: Klucel (hydroxypropylcellulose) (HPC)
[19] = dose: 200.0 mg/kg/injection, schedule: Q04DX003 (ip), vehicle: saline
[20] = dose: 400.0 mg/kg/injection, schedule: Q01DX009 (ip), vehicle: Klucel (hydroxypropylcellulose) (HPC)

## OC1CCCC2CCC[N-]C12.OC1CCCC2CCC[N-]C12.[O]=[V][OH] (centres undefined)
dose: 3.12 mg/kg/injection, schedule: Q01DX009 (ip), vehicle: Klucel (hydroxypropylcellulose) (HPC)
  T/C: 100 % of control
[1]
  T/C: 95 % of control
[2]
  T/C: 110 % of control
[3]
  T/C: 100 % of control
[4]
  T/C: 150 % of control
[5]
  T/C: 100 % of control

## CCCCN(CCCC)CCC(O)c1cc(-c2ccc(Cl)c(Cl)c2)nc2c(Cl)cc(Cl)cc12 (centres undefined)
[6]
  T/C: 99 % of control
[7]
  T/C: 110 % of control

## CCOC(=O)C1CC1c1ccccc1 (centres undefined)
[6]
  T/C: 110 % of control
[7]
  T/C: 115 % of control and 121 % of control
[8]
  T/C: 119 % of control
[9]
  T/C: 112 % of control

## Cc1n(CC(C)C)c2c([n+]1C)C(=O)c1ccccc1C2=O
dose: 0.25 mg/kg/injection, schedule: Q01DX010 (ip), vehicle: saline
  T/C: 90 % of control
dose: 0.5 mg/kg/injection, schedule: Q01DX010 (ip), vehicle: saline
  T/C: 90 % of control
dose: 1.0 mg/kg/injection, schedule: Q01DX009 (ip), vehicle: saline
  T/C: 105 % of control
dose: 1.0 mg/kg/injection, schedule: Q01DX010 (ip), vehicle: saline
  T/C: 90 % of control
dose: 2.0 mg/kg/injection, schedule: Q01DX009 (ip), vehicle: saline
  T/C: 120 % of control
dose: 2.0 mg/kg/injection, schedule: Q01DX010 (ip), vehicle: saline
  T/C: 120 % of control

## Cc1n[nH]c(=O)[nH]c1=O
[3]
  T/C: 100 % of control
[5]
  T/C: 109 % of control
[10]
  T/C: 100 % of control
[11]
  T/C: 91 % of control

## ClC1OCCOC1Cl (centres undefined)
[12]
  T/C: 96 % of control
[13]
  T/C: 100 % of control
dose: 50.0 mg/kg/injection, schedule: Q04DX003 (ip), vehicle: saline
  T/C: 105 % of control
[14]
  T/C: 110 % of control

## C[C@]12CC[C@H]3C(=CCc4cc(O)ccc43)[C@@H]1CCC2=O
[15]
  T/C: 95 % of control
[16]
  T/C: 91 % of control
[17]
  T/C: 90 % of control
[18]
  T/C: 95 % of control

## Nc1nc(-c2ccccc2)ns1
dose: 25.0 mg/kg/injection, schedule: Q01DX009 (ip), vehicle: saline sonified
  T/C: 100 % of control
dose: 50.0 mg/kg/injection, schedule: Q01DX009 (ip), vehicle: saline sonified
  T/C: 100 % of control

## C#CC(C)(C)OCC(O)CCl (centres undefined)
[13]
  T/C: 95 % of control
dose: 100.0 mg/kg/injection, schedule: Q01DX009 (ip), vehicle: saline
  T/C: 100 % of control
[14]
  T/C: 91 % of control
dose: 200.0 mg/kg/injection, schedule: Q01DX009 (ip), vehicle: saline
  T/C: 91 % of control
[19]
  T/C: 100 % of control
dose: 400.0 mg/kg/injection, schedule: Q04DX003 (ip), vehicle: saline
  T/C: 112 % of control

## NC(=S)c1ccc[n+](Cc2c(Cl)cccc2Cl)c1
dose: 50.0 mg/kg/injection, schedule: Q04DX002 (ip), vehicle: saline with Tween-80
  T/C: 110 % of control
dose: 100.0 mg/kg/injection, schedule: Q04DX002 (ip), vehicle: saline with Tween-80
  T/C: 101 % of control

## COC1C(O)C(OC2CCC3(C)C(CCC4C3CCC3(C)C(C5=CC(=O)OC5)CCC43O)C2)OC(C)C1OC(C)=O (centres undefined)
dose: 9.6 mg/kg/injection, schedule: Q01DX009 (ip), vehicle: saline with Tween-80
  T/C: 115 % of control
dose: 22.0 mg/kg/injection, schedule: Q01DX009 (ip), vehicle: saline with Tween-80
  T/C: 108 % of control
dose: 33.0 mg/kg/injection, schedule: Q01DX009 (ip), vehicle: saline with Tween-80
  T/C: 100 % of control

## O=C(C=P(c1ccccc1)(c1ccccc1)c1ccccc1)CCl
[1]
  T/C: 91 % of control
dose: 6.25 mg/kg/injection, schedule: Q04DX003 (ip), vehicle: Klucel (hydroxypropylcellulose) (HPC)
  T/C: 100 % of control
[3]
  T/C: 91 % of control
dose: 12.5 mg/kg/injection, schedule: Q04DX003 (ip), vehicle: Klucel (hydroxypropylcellulose) (HPC)
  T/C: 100 % of control
[5]
  T/C: 100 % of control
dose: 25.0 mg/kg/injection, schedule: Q04DX003 (ip), vehicle: Klucel (hydroxypropylcellulose) (HPC)
  T/C: 100 % of control

## O=C(C1=Cc2ccccc2OC1)N1CCN(C(=O)C2=Cc3ccccc3OC2)CC1
dose: 100.0 mg/kg/injection, schedule: Q04DX003 (ip), vehicle: saline with Tween-80
  T/C: 91 % of control
dose: 200.0 mg/kg/injection, schedule: Q04DX003 (ip), vehicle: saline with Tween-80
  T/C: 91 % of control
dose: 400.0 mg/kg/injection, schedule: Q04DX003 (ip), vehicle: saline with Tween-80
  T/C: 86 % of control

## COc1ccc(C(=O)CC(C#N)c2ccc3c(c2)OCO3)cc1OC (centres undefined)
[7]
  T/C: 90 % of control
[8]
  T/C: 100 % of control
[9]
  T/C: 95 % of control

## COc1cc(NCCCCCCCNC(C)C)c2nccc(C)c2c1
dose: 3.13 mg/kg/injection, schedule: Q01DX009 (ip), vehicle: saline
  T/C: 105 % of control
[2]
  T/C: 98 % of control and 115 % of control
[12]
  T/C: 109 % of control and 116 % of control

## CCOC(=O)/C=C(\C)SC1=CC(=O)c2ccccc2C1=O
dose: 3.13 mg/kg/injection, schedule: Q01DX009 (ip), vehicle: saline with Tween-80
  T/C: 102 % of control
dose: 6.25 mg/kg/injection, schedule: Q01DX009 (ip), vehicle: saline with Tween-80
  T/C: 104 % of control
dose: 12.5 mg/kg/injection, schedule: Q01DX009 (ip), vehicle: saline with Tween-80
  T/C: 112 % of control
dose: 25.0 mg/kg/injection, schedule: Q01DX009 (ip), vehicle: saline with Tween-80
  T/C: 104 % of control

## COC(=O)/C=C/c1ccc(Cl)cc1
[11]
  T/C: 95 % of control
[16]
  T/C: 95 % of control
[20]
  T/C: 91 % of control

## CCN(CC)c1ccc(Cc2ccc(N(CC)CC)cc2Br)c(Br)c1
[15]
  T/C: 111 % of control
[17]
  T/C: 111 % of control
[18]
  T/C: 111 % of control

## O=C1NN(CCO)C(=S)Nc2ccccc21
[10]
  T/C: 100 % of control
[11]
  T/C: 100 % of control
[16]
  T/C: 90 % of control

## OCC1OC(Nc2ccccc2/C=N\O)C(O)C1O (centres undefined)
[7]
  T/C: 111 % of control
[8]
  T/C: 94 % of control

## CC(=O)OC1=CCC(C(C)(C)C)CC1 (centres undefined)
dose: 5.15 mg/kg/injection, schedule: Q04DX003 (ip), vehicle: saline
  T/C: 100 % of control
[1]
  T/C: 100 % of control
dose: 10.31 mg/kg/injection, schedule: Q04DX003 (ip), vehicle: saline
  T/C: 90 % of control
[3]
  T/C: 100 % of control
dose: 20.62 mg/kg/injection, schedule: Q04DX003 (ip), vehicle: saline
  T/C: 90 % of control
[5]
  T/C: 100 % of control
dose: 35.0 mg/kg/injection, schedule: Q01DX009 (ip), vehicle: Klucel (hydroxypropylcellulose) (HPC)
  T/C: 91 % of control and 100 % of control
dose: 41.25 mg/kg/injection, schedule: Q04DX003 (ip), vehicle: Klucel (hydroxypropylcellulose) (HPC)
  T/C: 87 % of control
dose: 55.0 mg/kg/injection, schedule: Q01DX009 (ip), vehicle: Klucel (hydroxypropylcellulose) (HPC)
  T/C: 100 % of control
dose: 80.0 mg/kg/injection, schedule: Q01DX009 (ip), vehicle: Klucel (hydroxypropylcellulose) (HPC)
  T/C: 87 % of control

## CC1CC2C(CC1=O)C(C)(C)CCC2(C)C (centres undefined)
[11]
  T/C: 109 % of control
[16]
  T/C: 104 % of control
dose: 264.0 mg/kg/injection, schedule: Q04DX003 (ip), vehicle: Klucel (hydroxypropylcellulose) (HPC)
  T/C: 104 % of control and 109 % of control
[20]
  T/C: 86 % of control
[18]
  T/C: 104 % of control

## CCCNc1ncnc2c1cnn2C
[4]
  T/C: 88 % of control
[12]
  T/C: 112 % of control
[13]
  T/C: 108 % of control
[14]
  T/C: 120 % of control
[19]
  T/C: 120 % of control

## NC(=O)Nc1nc(-c2ccccc2)no1
[11]
  T/C: 95 % of control
[15]
  T/C: 100 % of control
[16]
  T/C: 100 % of control
[17]
  T/C: 109 % of control
[20]
  T/C: 90 % of control
[18]
  T/C: 100 % of control
